Where “and” joins values, the source holds several entries; their conditions need not be identical. Equal values may be shown once. After the bases stand the sugars from the 5' end (letter, count) and the backbone: PS all phosphorothioate, else s phosphorothioate and o phosphodiester by linkage. Methylation of C is not given here. e = 2'-O-(2-methoxyethyl) (MOE); k = constrained ethyl (cEt); d = 2'-deoxy (DNA)

Among the data in the OligoGym collection are target mRNA inhibition values, retold here.

The data set has as its target MALAT1. As to conditions: ASO, A431, 0.005 µM.

Turning to CTAGGATCCTCTACGC (sugars k3 d10 k3, PS), the target mRNA inhibition was found to be 11%.

Take ATTACTTCCGTTACGA (sugars k3 d10 k3, PS): the target mRNA inhibition came to 43%. In the case of TTTATAGACCCCTGAC (sugars k3 d10 k3, PS) it was 22%; in that of GTTCAAAGATATTGTG (sugars k3 d10 k3, PS), 0%.

For the sequence CCTCAATGCCTACCGC (sugars k3 d10 k3, PS), the target mRNA inhibition was found to be 17%. Take TCTAATAGCAGCGGGA (sugars k3 d10 k3, PS): the target mRNA inhibition was found to be 16%. In the case of AATGACGCAATTCTCC (sugars k3 d10 k3, PS) it was 21%; in that of CCAGTTCAATACTTTC (sugars k3 d10 k3, PS), 13%; in that of ACCCCCGGAACTTTTA (sugars k3 d10 k3, PS), 9%. In the case of CTGTCTAAGAGGTTAT (sugars k3 d10 k3, PS) it was 7%. In the case of TTCCGCTCAAATCCTG (sugars k3 d10 k3, PS) it was 35%; in that of GCCTCTATTGCCATGT (sugars k3 d10 k3, PS), 30%. On to TATCACTCAGCTGGAT (sugars k3 d10 k3, PS), for which the target mRNA inhibition is 34%. Take GTTAACAGCTGCCTGC (sugars k3 d10 k3, PS): the target mRNA inhibition came to 7%. For the sequence TACTTTAAGCCTTCGG (sugars k3 d10 k3, PS), the target mRNA inhibition worked out at 29%. In the case of GATATTGTGCTGTTAC (sugars k3 d10 k3, PS) it was -17%. In the case of GGTCAATAGTGTAAAA (sugars k3 d10 k3, PS) it was 43%; in that of TAAGTTTTCAGCAGTA (sugars k3 d10 k3, PS), -14%.

Regarding TCCTAGCTTCACCACC (sugars k3 d10 k3, PS), the target mRNA inhibition amounted to 44%. In the case of CTCATTTATTTCGGCT (sugars k3 d10 k3, PS) it was 78% and 93%; in that of AAATCCCCTAGGGAAG (sugars k3 d10 k3, PS), -8%; in that of CTGCCAGGCTGGTTAT (sugars k3 d10 k3, PS), 1%. In the case of CAATTACCTAAACCCA (sugars k3 d10 k3, PS) it was 20%; in that of GAACCCCGTCCTGGAA (sugars k3 d10 k3, PS), -18%; in that of CACCGCTTGAGATTTG (sugars k3 d10 k3, PS), 47% and 30% and 26%. Under AACCTATTGACTATAT (sugars k3 d10 k3, PS) stands 19%; under GGAATTATTATATGCT (sugars k3 d10 k3, PS), 54%; under GTTACGAAAGTCCTTC (sugars k3 d10 k3, PS), 45%. With “ATGGAGGTATGACATATAAT (sugars e5 d10 e5, PS)”, the target mRNA inhibition was 22% and 25%. Under AAATGGCGGACTTTCT (sugars k3 d10 k3, PS) stands 17%.

For the sequence TTTAAACGGGTCATCA (sugars k3 d10 k3, PS), the target mRNA inhibition was found to be 10%. In the case of GGAACAAGTCCTACAA (sugars k3 d10 k3, PS) it was 23%. In the case of GCGAATGGCTTTGTCT (sugars k3 d10 k3, PS) it was 7%; in that of ATTGGGAGTTACTTGC (sugars k3 d10 k3, PS), 63% and 85%. Under TGTTACACCTTGAGTC (sugars k3 d10 k3, PS) stands 37%; under ACAAGGCAAATCGCCA (sugars k3 d10 k3, PS), 17%.

Consider CAAGAACTAGCACCTG (sugars k3 d10 k3, PS), for which the target mRNA inhibition amounted to 7%.

As for ACCTTCATCACCAAAT (sugars k3 d10 k3, PS), the target mRNA inhibition was 22%. Under GATAACGAAGAGATAC (sugars k3 d10 k3, PS) stands 19%; under ATTAAAGAGTGTTCGC (sugars k3 d10 k3, PS), 69% and 44%. Under CCACAAGGATCCAAGC (sugars k3 d10 k3, PS) stands -20%; under AGATAATGTTCTCATC (sugars k3 d10 k3, PS), 11%; under CTAAGACTTTAAGTTC (sugars k3 d10 k3, PS), 27%.

For TAACCTATTGACTATA (sugars k3 d10 k3, PS), the target mRNA inhibition was determined as 22%. Turning to TAAATCATTGGGAGTT (sugars k3 d10 k3, PS), the target mRNA inhibition is 38%.

On to TATATTTAAGGCCTTC (sugars k3 d10 k3, PS), for which the target mRNA inhibition came out at 45%. In the case of GTCTCGGGCTGCAGGC (sugars k3 d10 k3, PS), the target mRNA inhibition was -6%. Under GTATGCTGATAAACTC (sugars k3 d10 k3, PS) stands 52%. In the case of CGGAGAACAACTCGCA (sugars k3 d10 k3, PS) it was -4%. Under TCCTGCGACTTGCTCC (sugars k3 d10 k3, PS) stands 15%; under TGCTTACACACAACTG (sugars k3 d10 k3, PS), 35%.

As to ATCTCCCACCTGTCTA (sugars k3 d10 k3, PS), the target mRNA inhibition was found to be 45%. In the case of GATTCACTGAATCCAC (sugars k3 d10 k3, PS) it was 8%. Under GATTATCCTGATATTG (sugars k3 d10 k3, PS) stands 4%; under ACATTGCCTACCACTC (sugars k3 d10 k3, PS), 16%. Under TTGATCCCAACTCATC (sugars k3 d10 k3, PS) stands 33%; under CTATTCCTTTCATAGA (sugars k3 d10 k3, PS), -11%; under CAACACTCAGCCTTTA (sugars k3 d10 k3, PS), -1%.

As for TAGGTATAGTTTACCA (sugars k3 d10 k3, PS), the target mRNA inhibition came to 2%. For CCCAAAAGCTCTATAC (sugars k3 d10 k3, PS), the target mRNA inhibition was determined as 6%. Under ATCTGCGGTTTCCTCA (sugars k3 d10 k3, PS) stands 58%; under TCCCTGAAGGTGTTCG (sugars k3 d10 k3, PS), 18%. As to GCACAGCGGTACACTC (sugars k3 d10 k3, PS), the target mRNA inhibition amounted to 9%. Under TGAAGTCAAGACAACT (sugars k3 d10 k3, PS) stands 1%; under TTGAGATGGACATTGC (sugars k3 d10 k3, PS), 87% and 72%. Under AGAACCACACACTACC (sugars k3 d10 k3, PS) stands 23%; under TTACCAACCACTCGCT (sugars k3 d10 k3, PS), 2%; under TATAGCATCTGTGGAA (sugars k3 d10 k3, PS), 20%.

Regarding TACTTCATTACCCCAA (sugars k3 d10 k3, PS), the target mRNA inhibition turned out to be 34%. Under GAGTATAAGCCTGAAA (sugars k3 d10 k3, PS) stands 16%; under CCTGAAGACAGATTAG (sugars k3 d10 k3, PS), 24%.

Turning to AACTTATCTGTTAACA (sugars k3 d10 k3, PS), the target mRNA inhibition is 30%. Under CTCCATGAAGAAGCTT (sugars k3 d10 k3, PS) stands 49%. Under TTCATTACCCCAACTA (sugars k3 d10 k3, PS) stands 42%. Under TCCACCCCCACGCCAA (sugars k3 d10 k3, PS) stands -9%. As for TCTTACTTGATAATAC (sugars k3 d10 k3, PS), the target mRNA inhibition turned out to be 10%.

As to CCAAATTAATGCACTG (sugars k3 d10 k3, PS), the target mRNA inhibition worked out at 13%. TCCTACCACTCCCAAT (sugars k3 d10 k3, PS): the target mRNA inhibition was determined as 30%. In the case of ATAGACGGAGAACAAC (sugars k3 d10 k3, PS) it was 21%; in that of AATCCCCCCCAAGATT (sugars k3 d10 k3, PS), -5%; in that of AAGCACTTATCCCTAA (sugars k3 d10 k3, PS), 25%. In the case of GCCCTTCTATTGGTAT (sugars k3 d10 k3, PS) it was -3%; in that of GTGAAAACCCACTCTT (sugars k3 d10 k3, PS), 10%; in that of AGCCAAGCACTCATAT (sugars k3 d10 k3, PS), 17%. As to AATTGCACTCGCTCCT (sugars k3 d10 k3, PS), the target mRNA inhibition turned out to be 29%. Under GGCCATCATACTGCCA (sugars k3 d10 k3, PS) stands -19%; under CTCCGTGTGGTTGCCA (sugars k3 d10 k3, PS), 24%; under AAGACTAAAGGCTTCA (sugars k3 d10 k3, PS), 21%. With TCTTGAATTACTTCCG (sugars k3 d10 k3, PS), the target mRNA inhibition was 76% and 55%. For AGCTAGGGAAAAGTGG (sugars k3 d10 k3, PS), the target mRNA inhibition is -10%. Under ACTAGCACCTGCAGAG (sugars k3 d10 k3, PS) stands 23%; under TTTACTTGCCAACAGA (sugars k3 d10 k3, PS), 27%.

For AGTCCCTGAAGGTGTT (sugars k3 d10 k3, PS), the target mRNA inhibition was 28%. In the case of AAAGATCGCCTTCAAA (sugars k3 d10 k3, PS) it was 32%; in that of GCTCTAGTTTCTATAA (sugars k3 d10 k3, PS), 27%. With AGTGTGATAGTTCAGG (sugars k3 d10 k3, PS), the target mRNA inhibition worked out at 7%.

For CTGAAAACTCCCCCCC (sugars k3 d10 k3, PS), the target mRNA inhibition is -2%. In the case of CGAATTCAGGGTGAGG (sugars k3 d10 k3, PS) it was 68% and 87%; in that of ACCGGAGCAGGAAGAA (sugars k3 d10 k3, PS), 4%.
